A short description of the assay: Eu(III) titration, time-resolved luminescence, determination of Eu(III) dissociation constants. Type of assay: binding. As to conditions: 5 micromolar peptide, 30° C., 50 mM HEPES pH 7.5, 100 mM NaCl; averages of three separate experiments. The procedure:
The luminescence experiments were conducted as follows. Time-resolved emission measurements were made with a CLARIOstar® spectrofluorimeter. The spectra were recorded between 410 and 700 nm, and all measurements were made using the following settings: excitation wavelength 360 nm; delay time 0.4 ms; stepwidth 1.0 nm; emission bandwidth 8 nm; gain: 3000; focal height […]; 20 flashes per well. All of the spectra were corrected for background luminescence by subtracting a blank scan of the solvent solution.
Determination of Eu(III) dissociation constants (KD). Eu(III) titrations were performed at 30° C. in a buffer containing 50 mM HEPES buffer, pH 7.5, 100 mM NaCl, and 5 micromolar of the of the phosphopeptide Sox-P (5 micromolar) or the corresponding unphosphorylated biosensor Sox-OH (5 micromolar) in a total volume of 200 microliters. Aliquots of EuCl3 stock solutions were added (for the final EuCl3 concentration in the well to be in the range of approximately 2.5-6000 micromolar) and the data was recorded in the fluorometer. Data were fit with the program GraFit 7. The reported values are averages of three separate experiments.

pKd: −log10 of the molar value. Square brackets hold non-standard residues; d marks the D form. Ends that are not written are not given here. * marks the point of attachment. Sox = hydroxyquinoline on cysteine, CN(C)S(=O)(=O)c1ccc(O)c2nc(C*)ccc12; pT = C[C@@H](OP(=O)(O)O)[C@H](N)C(=O)O

The pKd is −log10 of the Kd, conventionally taken in molar units. Low values mean a large Kd, high ones a small Kd. Consider “LVEPLTPC(Sox)GEA [Sox-OH, unphosphorylated biosensor peptide with Sox hydroxyquinoline attached to the S of the cysteine]”, for which the pKd is 2.80.

Substance “LVEPLT*PC(Sox)GEA (LVEPL[pT]PC(Sox)GEA) [Sox-P, phosphopeptide with Sox hydroxyquinoline attached to the S of the cysteine]” showed a pKd of 4.74.

The record behind these values is patent US10799603B2, “Kinase and/or phosphatase sensing via hydroxyquinoline-sensitized chelates” (Massachusetts Institute of Technology, priority 2018, dated 2020).
